Test results taken from patent US20250206761A1, “HALOINDOLE MACROCYCLIC COMPOUNDS FOR THE TREATMENT OF CANCER” (Hoffmann-La Roche Inc., priority 2022, published 2025).

Assays:
[1] = tested on: NCI-H358 (ATCC-CRL5807) cells; experiment: Cell viability assay, G12C (NCI-H358); assay type: cell-based, human; details: Homo sapiens; KRAS cell viability, NCI-H358, 72 hrs, Cell Counting Kit-8
Outline: (§1)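 Read-out is CCK-8 absorbance (OD450 minus OD650, 2 hrs after reagent), reflecting NADPH after 72 hrs of compound exposure in 0.5% DMSO. Seeding density was 5,000 cells/well for NCI-H358 and 2,000 for AGS and SW620. IC50 derived by 4-parameter sigmoidal fitting.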

SW620 (ATCC-CCL-227) = experiment: Cell viability assay, G12V (SW620); assay type: cell-based, human; details: Homo sapiens, SW-620; KRAS cell viability, SW620, 72 hrs, Cell Counting Kit-8
Outline: as §1

[2] = tested on: AGS (ATCC-CRL-1739) cells; experiment: Cell viability assay, G12D (AGS); assay type: cell-based, human; details: Homo sapiens, KRAS cell viability, 72 hrs, Cell Counting Kit-8
Outline: as §1

KRAS G12C-BRAF complex [3] = target: T1, KRAS G12C-BRAF complex (Homo sapiens (Human), UniProt P01116+P62937, G12C); experiment: KRAS G12C-BRAF NanoBit assay; assay type: cell-based; details: HEK293 cells, 3 hours of incubation
T1 sequence (P01116-2 other isoform, or with tags, fused parts or gaps G12C): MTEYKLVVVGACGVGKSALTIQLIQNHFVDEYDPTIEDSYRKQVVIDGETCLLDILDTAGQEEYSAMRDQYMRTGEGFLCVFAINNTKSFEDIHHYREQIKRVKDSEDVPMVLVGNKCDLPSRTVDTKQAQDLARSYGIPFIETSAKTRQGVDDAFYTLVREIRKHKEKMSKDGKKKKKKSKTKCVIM
T1 sequence (P62937 whole entry): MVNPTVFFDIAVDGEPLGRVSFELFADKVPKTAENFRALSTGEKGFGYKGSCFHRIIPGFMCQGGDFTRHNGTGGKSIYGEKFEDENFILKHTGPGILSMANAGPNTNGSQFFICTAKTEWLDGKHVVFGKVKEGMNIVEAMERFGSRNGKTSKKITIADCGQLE
Description: This assay is to measure the ability of tested compounds in disruption of the KRAS G12C-BRAF complex at the cellular level, we established the NanoBit cellular assay in mammalian HEK293 (ATCC) cells.
HEK293 cells were grown and maintained using DMEM medium (Thermo Fisher Scientific) with 10% fetal bovine serum and 1% penicillin/streptomycin. Both KRAS G12C and BRAF RBD were cloned into the NanoBit vectors ([…] vectors system, Promega) with the orientations SnmBit-KRAS G12C and BRAF RBD-LgBit, respectively, and co-transfected into HEK293 cells. Cells were then selected with 100 μg/mL Hygromycin B (10687010, Thermo Fisher) and Blasticidin (5 μg/mL) for 4 weeks to get the stable cell pool.
On the day of the assay, 75 nL of compound solution was presented in a 384-well assay plate as a 16-point 3-fold dilution starting from a final concentration of 30 μM in DMSO. Then cells were seeded at 10,000 cells/25 μL/well in a 384-well plate. After 3 hours of incubation, 6 μL of volume of Nano-Glo® Live Cell Substrate (Promega) was added into each well. Monitor luminescence using ultra384 model in Envision at 20 minutes. Compounds that facilitate disruption of the KRAS G12C-BRAF RBD complex were identified as those eliciting a decrease of luminescence relative to DMSO control wells.

[4] = tested on: phosphorylation of ERK, KRAS G12V in SW620; experiment: pERK inhibition assay, KRAS G12V; assay type: cell-based, human
Outline: (§2)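 Seeding densities differed per line: 30,000/well for NCJ-H358 and SW620, 20,000/well for AGS, all in RPMI-1640 plus 10% FBS. After attachment overnight, compound was applied for 4 h. Phospho-ERK was then quantified by in-cell ELISA (OD450), with IC50 fitted sigmoidally.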

[5] = tested on: phosphorylation of ERK, KRAS G12C in NCJ-H358 cells; experiment: pERK inhibition assay, KRAS G12C; assay type: cell-based, human; details: 4 hours
Outline: as §2

[6] = tested on: phosphorylation of ERK, KRAS G12D in AGS cells; experiment: pERK inhibition assay, KRAS G12D; assay type: cell-based, human; details: 4 hours
Outline: as §2

KRAS G12C-BRAF complex [7] = target: T1, KRAS G12C-BRAF complex; experiment: KRAS-BRAF with CYPA (500 nM) interaction assay (TR-FRET), G12C; assay type: biochemical
[8] = target: KRAS G12V binding to BRAF (Homo sapiens (Human), UniProt P01116+P62937, G12V); experiment: KRAS-BRAF with CYPA (500 nM) interaction assay (TR-FRET), G12V; assay type: biochemical
KRAS G12V binding to BRAF, sequence (P01116-2 other isoform, or with tags, fused parts or gaps G12V): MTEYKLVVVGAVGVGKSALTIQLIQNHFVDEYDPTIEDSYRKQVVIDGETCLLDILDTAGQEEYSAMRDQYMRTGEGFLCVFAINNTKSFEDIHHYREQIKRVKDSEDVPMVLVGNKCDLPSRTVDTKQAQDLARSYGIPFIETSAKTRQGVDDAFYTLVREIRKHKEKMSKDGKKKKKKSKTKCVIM
KRAS G12V binding to BRAF, sequence (P62937 whole entry): as the sequence (P62937 whole entry) above
Outline: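 A TR-FRET assay measured how compound, in the presence of CYPA, disrupts binding of GMPPNP-loaded 6His-KRAS G12V to BRAF. The buffer contained 25 mM HEPES PH=7.4, 0.002% Tween20, 0.1% BSA, 100 mM NaCl, 5 mM MgCl2 and 10 μM GMPPNP. Compounds ran as a 16-point 3-fold dilution series from 10 μM for 3 hours.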

[9] = target: KRAS G12D binding to BRAF (Homo sapiens (Human), UniProt P01116+P62937, G12D); experiment: KRAS-BRAF with CYPA (500 nM) interaction assay (TR-FRET), G12D; assay type: biochemical
KRAS G12D binding to BRAF, sequence (P01116-2 other isoform, or with tags, fused parts or gaps G12D): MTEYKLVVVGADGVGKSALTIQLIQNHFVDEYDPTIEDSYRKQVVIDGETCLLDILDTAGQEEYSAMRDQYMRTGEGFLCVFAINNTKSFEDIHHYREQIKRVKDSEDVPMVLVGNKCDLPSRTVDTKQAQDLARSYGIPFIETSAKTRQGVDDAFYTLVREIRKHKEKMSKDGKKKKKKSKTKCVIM
KRAS G12D binding to BRAF, sequence (P62937 whole entry): as the sequence (P62937 whole entry) above

[10] = Homo sapiens, SW-620, SW620, 4 hours

| Compound | IC50 [1] | IC50 (SW620 (ATCC-CCL-227)) | IC50 [2] | IC50 (KRAS G12C-BRAF complex [3]) | IC50 [4, 10] | IC50 ([5]; Homo sapiens) | IC50 ([6]; Homo sapiens) | IC50 (KRAS G12C-BRAF complex [7]) | IC50 [8] | IC50 [9] | IC50 ([4]; SW620, 4 hours) | IC50 [5] | IC50 [6] |
| --- | --- | --- | --- | --- | --- | --- | --- | --- | --- | --- | --- | --- | --- |
| CO[C@@H](C)c1ncc(N2CCN(C)CC2)cc1-c1c2c3cc(c(F)cc3n1CC(F)(F)F)-c1csc(n1)C[C@H](NC(=O)[C@@H](COC1CN(C(=O)[C@H](F)Cl)C1)C(C)C)C(=O)N1CCC[C@H](N1)C(=O)OCC(C)(C)C2 (atropisomer, axis not shown; (M)) [Example 13, (2R)-2-[[1-[(2R)-2-chloro-2-fluoro-acetyl]azetidin-3-yl]oxymethyl]-N-[(7S,13S)-24-fluoro-(20M)-20-[2-[(1S)-1-methoxyethyl]-5-(4-methylpiperazin-1-yl)-3-pyridyl]-17,17-dimethyl-8,14-dioxo-21-(2,2,2-trifluoroethyl)-15-oxa-4-thia-9,21,27,28-tetrazapentacyclo-[17.5.2.1^2,5.1^9,13.0^22,26]octacosa-1(25),2,5(28),19,22(26),23-hexaen-7-yl]-3-methyl-butanamide] | 2 nM | 23 nM | 2390 nM | 27 nM |  |  |  |  |  |  |  |  |  |
| CO[C@@H](C)c1ncc(N2CCN(C)CC2)cc1-c1c2c3cc(c(F)cc3n1CC(F)(F)F)-c1csc(n1)C[C@H](NC(=O)[C@H](COC1CN(C(=O)[C@H](F)Cl)C1)C(C)C)C(=O)N1CCC[C@H](N1)C(=O)OCC(C)(C)C2 (atropisomer, axis not shown; (M)) [Example 14, (2S)-2-[[1-[(2R)-2-chloro-2-fluoro-acetyl]azetidin-3-yl]oxymethyl]-N-[(7S,13S)-24-fluoro-(20M)-20-[2-[(1S)-1-methoxyethyl]-5-(4-methylpiperazin-1-yl)-3-pyridyl]-17,17-dimethyl-8,14-dioxo-21-(2,2,2-trifluoroethyl)-15-oxa-4-thia-9,21,27,28-tetrazapentacyclo[17.5.2.1^2,5.1^9,13.0^22,26]octacosa-1(25),2,5(28),19,22(26),23-hexaen-7-yl]-3-methyl-butanamide] |  |  |  | 106 nM | 78 nM | 33 nM | 170 nM |  |  |  |  |  |  |
| CCn1c(-c2cc(N3CCN(C)CC3)cnc2[C@H](C)OC)c2c3cc(c(F)cc31)-c1csc(n1)C[C@H](NC(=O)[C@H](C(C)C)N1CCC3(CN(C(=O)[C@H](F)Cl)C3)C1=O)C(=O)N1CCC[C@H](N1)C(=O)OCC(C)(C)C2 (atropisomer, axis not shown; (M)) [Example 29, (2S)-2-[2-[(2R)-2-chloro-2-fluoro-acetyl]-5-oxo-2,6-diazaspiro[3.4]octan-6-yl]-N-[(7S,13S)-21-ethyl-24-fluoro-(20M)-20-[2-[(1S)-1-methoxyethyl]-5-(4-methylpiperazin-1-yl)-3-pyridyl]-17,17-dimethyl-8,14-dioxo-15-oxa-4-thia-9,21,27,28-tetrazapentacyclo[17.5.2.1^2,5.1^9,13.0^22,26]octacosa-1(25),2,5(28),19,22(26),23-hexaen-7-yl]-3-methyl-butanamide] | < 1 nM | 447 nM | 1230 nM | 11000 nM | 45 nM | 1 nM | 12 nM |  |  |  |  |  |  |
| CO[C@@H](C)c1ncc(N2CCN(CC(F)(F)F)CC2)cc1-c1c2c3cc(c(F)cc3n1CC(F)(F)F)-c1csc(n1)C[C@H](NC(=O)[C@H](C(C)C)N1CCC3(CN(C(=O)[C@H](F)Cl)C3)C1=O)C(=O)N1CCC[C@H](N1)C(=O)OCC(C)(C)C2 (atropisomer, axis not shown; (M)) [Example 46, (2S)-2-[2-[(2R)-2-chloro-2-fluoro-acetyl]-5-oxo-2,6-diazaspiro[3.4]octan-6-yl]-N-[(7S,13S)-24-fluoro-(20M)-20-[2-[(1S)-1-methoxyethyl]-5-[4-(2,2,2-trifluoroethyl)piperazin-1-yl]-3-pyridyl]-17,17-dimethyl-8,14-dioxo-21-(2,2,2-trifluoroethyl)-15-oxa-4-thia-9,21,27,28-tetrazapentacyclo[17.5.2.1^2,5.1^9,13.0^22,26]octacosa-1(25),2,5(28),19,22(26),23-hexaen-7-yl]-3-methyl-butanamide] | 3 nM | 168 nM | 300 nM |  | 627 nM | 9 nM | 299 nM | 129 nM | 1230 nM | 1060 nM |  |  |  |
| CO[C@@H](C)c1ncc(N2CCOCC2)cc1-c1c2c3cc(c(F)cc3n1CC(F)(F)F)-c1csc(n1)C[C@H](NC(=O)[C@H](C(C)C)N1CC[C@]3(CCN(C(=O)[C@H](F)Cl)C3)C1=O)C(=O)N1CCC[C@H](N1)C(=O)OCC(C)(C)C2 (atropisomer, axis not shown; (M)) [Example 57, (2S)-2-[(5S)-7-[(2R)-2-chloro-2-fluoro-acetyl]-1-oxo-2,7-diazaspiro[4.4]nonan-2-yl]-N-[(7S,13S)-24-fluoro-(20M)-20-[2-[(1S)-1-methoxyethyl]-5-morpholino-3-pyridyl]-17,17-dimethyl-8,14-dioxo-21-(2,2,2-trifluoroethyl)-15-oxa-4-thia-9,21,27,28-tetrazapentacyclo[17.5.2.1^2,5.1^9,13.0^22,26]octacosa-1(25),2,5(28),19,22(26),23-hexaen-7-yl]-3-methyl-butanamide] | 3 nM | 59 nM | 1300 nM | 23 nM | 33 nM | 6 nM | 57 nM |  |  |  |  |  |  |
| CO[C@@H](C)c1ncc(N2CCOCC2)cc1-c1c2c3cc(c(F)cc3n1CC(F)(F)F)-c1csc(n1)C[C@H](NC(=O)[C@H](C(C)C)N1CCC3(CN(C(=O)[C@H](F)Cl)C3)C1=O)C(=O)N1CCC[C@H](N1)C(=O)OCC(C)(C)C2 (atropisomer, axis not shown; (M)) [Example 58, (2S)-2-[2-[(2R)-2-chloro-2-fluoro-acetyl]-5-oxo-2,6-diazaspiro[3.4]octan-6-yl]-N-[(7S,13S)-24-fluoro-(20M)-20-[2-[(1S)-1-methoxyethyl]-5-morpholino-3-pyridyl]-17,17-dimethyl-8,14-dioxo-21-(2,2,2-trifluoroethyl)-15-oxa-4-thia-9,21,27,28-tetrazapentacyclo[17.5.2.1^2,5.1^9,13.0^22,26]octacosa-1(25),2,5(28),19,22(26),23-hexaen-7-yl]-3-methyl-butanamide] | 5 nM | 130 nM | 1500 nM | 54 nM | 41 nM | 12 nM | 124 nM |  |  |  |  |  |  |
| CCn1c(-c2cc(N3CCN(C)CC3)cnc2[C@H](C)OC)c2c3cc(c(F)cc31)-c1csc(n1)C[C@H](NC(=O)[C@H](C(C)C)N1CCC[C@]3(CCN(C(=O)[C@@H](F)Cl)C3)C1=O)C(=O)N1CCC[C@H](N1)C(=O)OCC(C)(C)C2 [Example 22, (2S)-2-[(5R)-2-[(2S)-2-chloro-2-fluoro-acetyl]-6-oxo-2,7-diazaspiro[4.5]decan-7-yl]-N-[(7S,13S)-21-ethyl-24-fluoro-(20M)-20-[2-[(1S)-1-methoxyethyl]-5-(4-methylpiperazin-1-yl)-3-pyridyl]-17,17-dimethyl-8,14-dioxo-15-oxa-4-thia-9,21,27,28-tetrazapentacyclo[17.5.2.1^2,5.1^9,13.0^22,26]octacosa-1(25),2,5(28),19,22(26),23-hexaen-7-yl]-3-methyl-butanamide] |  |  |  | 209 nM |  |  |  | 199 nM | > 10000 nM | > 10000 nM | 1020 nM | 53 nM | 1060 nM |
